Data: the NIST ThermoML archive (doi:10.1021/je049612f)

Settings: Gas, Vibrating wire viscometry

FS(F)(F)(F)(F)F [sulfur hexafluoride]
Settings | viscosity [mPa·s]
375 K, 11030 kPa | 0.06052
375 K, 11466 kPa | 0.06322
375 K, 12235 kPa | 0.0678
375 K, 12730 kPa | 0.07044
375 K, 13213 kPa | 0.07319
375 K, 13867 kPa | 0.07655
375 K, 14447 kPa | 0.07948
375 K, 15713 kPa | 0.08527
375 K, 16802 kPa | 0.09
400 K, 100.75 kPa | 0.0197
400 K, 127.69 kPa | 0.01971
400 K, 153.61 kPa | 0.01972
400 K, 174.48 kPa | 0.01973
400 K, 200.5 kPa | 0.01973
400 K, 224.7 kPa | 0.01975
400 K, 249.97 kPa | 0.01975
400 K, 276.92 kPa | 0.01976
400 K, 316.57 kPa | 0.01977
400 K, 356.06 kPa | 0.01979
400 K, 387.16 kPa | 0.0198
400 K, 431.42 kPa | 0.01981
400 K, 458.7 kPa | 0.01982
400 K, 482.84 kPa | 0.01983
400 K, 520.38 kPa | 0.01984
400 K, 569.64 kPa | 0.01987
400 K, 636.33 kPa | 0.01989
400 K, 669.9 kPa | 0.0199
400 K, 702.5 kPa | 0.01991
400 K, 753.74 kPa | 0.01994
400 K, 791.41 kPa | 0.01995
400 K, 818.44 kPa | 0.01996
400 K, 853.97 kPa | 0.01998
400 K, 930.59 kPa | 0.02001
400 K, 972.98 kPa | 0.02003
400 K, 1025.6 kPa | 0.02006
400 K, 1088.2 kPa | 0.02009
400 K, 1153.3 kPa | 0.02012
400 K, 1240.9 kPa | 0.02017
400 K, 1319.7 kPa | 0.02022
400 K, 1397.4 kPa | 0.02025
400 K, 1462.5 kPa | 0.02029
400 K, 1615.7 kPa | 0.02039
400 K, 1688.5 kPa | 0.02043
400 K, 1768 kPa | 0.02049
400 K, 1876.4 kPa | 0.02057
400 K, 1956 kPa | 0.02063
400 K, 2349.8 kPa | 0.02093
400 K, 2474.2 kPa | 0.02104
400 K, 2539.4 kPa | 0.02109
400 K, 2835.4 kPa | 0.02138
400 K, 3021.7 kPa | 0.02156
400 K, 3266.3 kPa | 0.02184
400 K, 3463.7 kPa | 0.02205
400 K, 3614.2 kPa | 0.02225
400 K, 3864.1 kPa | 0.02256
400 K, 4152.9 kPa | 0.02298
400 K, 4564.1 kPa | 0.02363
400 K, 4898.5 kPa | 0.02421
400 K, 5193.2 kPa | 0.02477
400 K, 5460.7 kPa | 0.02531
400 K, 5742.7 kPa | 0.02594
400 K, 6016.6 kPa | 0.02658
400 K, 6359.6 kPa | 0.02746
400 K, 6659.9 kPa | 0.02831
400 K, 6950.7 kPa | 0.02917
400 K, 7241 kPa | 0.03009
400 K, 7553 kPa | 0.03115
400 K, 7833.9 kPa | 0.03216
400 K, 8142 kPa | 0.03332
400 K, 8490.6 kPa | 0.03475
400 K, 8799 kPa | 0.03604
400 K, 9139.9 kPa | 0.0375
400 K, 9483.5 kPa | 0.03903
400 K, 9833.2 kPa | 0.0407
400 K, 10191 kPa | 0.04234
400 K, 10589 kPa | 0.04429
400 K, 11000 kPa | 0.04619
400 K, 11434 kPa | 0.04827
400 K, 11902 kPa | 0.05055
400 K, 12397 kPa | 0.05295
400 K, 12979 kPa | 0.05567
400 K, 13719 kPa | 0.05901
400 K, 14342 kPa | 0.06179
400 K, 15061 kPa | 0.06486
400 K, 15882 kPa | 0.0684
400 K, 16792 kPa | 0.07201
400 K, 17814 kPa | 0.076
400 K, 18718 kPa | 0.07939
400 K, 19958 kPa | 0.08386
425 K, 94.41 kPa | 0.02078
425 K, 120.34 kPa | 0.0208
425 K, 155.2 kPa | 0.02081
425 K, 171.36 kPa | 0.02081
425 K, 192.07 kPa | 0.02082
425 K, 205.12 kPa | 0.02083
425 K, 228.29 kPa | 0.02084
425 K, 263.75 kPa | 0.02085
425 K, 289.54 kPa | 0.02086
425 K, 311.35 kPa | 0.02086
425 K, 345.33 kPa | 0.02088
425 K, 374.1 kPa | 0.02088
425 K, 392.73 kPa | 0.02089
425 K, 424.79 kPa | 0.0209
425 K, 466.85 kPa | 0.02092
425 K, 503.16 kPa | 0.02093
425 K, 552.86 kPa | 0.02095
425 K, 598.07 kPa | 0.02097
425 K, 629.86 kPa | 0.02098
425 K, 668.63 kPa | 0.021
425 K, 715.37 kPa | 0.02101
425 K, 764.24 kPa | 0.02103
425 K, 813.31 kPa | 0.02105
425 K, 867.54 kPa | 0.02108
425 K, 939.66 kPa | 0.02111
425 K, 997 kPa | 0.02114
425 K, 1067.1 kPa | 0.02117
425 K, 1141.5 kPa | 0.02121
425 K, 1213.4 kPa | 0.02124
425 K, 1299.4 kPa | 0.02129
425 K, 1385.6 kPa | 0.02133
425 K, 1442.8 kPa | 0.02137
425 K, 1506.3 kPa | 0.02141
425 K, 1587.6 kPa | 0.02145
425 K, 1656.3 kPa | 0.02149
425 K, 1757.6 kPa | 0.02155
425 K, 1833.5 kPa | 0.0216
425 K, 1920.5 kPa | 0.02166
425 K, 2344.2 kPa | 0.02196
425 K, 2479.6 kPa | 0.02206
425 K, 2578.5 kPa | 0.02214
425 K, 2931.1 kPa | 0.02244
425 K, 3150.4 kPa | 0.02264
425 K, 3325.5 kPa | 0.02282
425 K, 3586.1 kPa | 0.02307
425 K, 3797.1 kPa | 0.0233
425 K, 4066.4 kPa | 0.02362
425 K, 4298.8 kPa | 0.02388
425 K, 4546.2 kPa | 0.0242
425 K, 4863.6 kPa | 0.02464
425 K, 5124.6 kPa | 0.02501
425 K, 5454.2 kPa | 0.02553
425 K, 5739.4 kPa | 0.026
425 K, 6056.4 kPa | 0.02654
425 K, 6339.5 kPa | 0.02706
425 K, 6654.3 kPa | 0.02768
425 K, 7006 kPa | 0.0284
425 K, 7363.2 kPa | 0.02921
425 K, 7712.7 kPa | 0.03006
425 K, 8064.1 kPa | 0.03097
425 K, 8392.3 kPa | 0.03179
425 K, 8760.7 kPa | 0.03277
425 K, 9135.4 kPa | 0.03386
425 K, 9514.5 kPa | 0.03501
425 K, 9876.1 kPa | 0.03614
425 K, 10296 kPa | 0.03744
425 K, 10899 kPa | 0.03948
425 K, 11563 kPa | 0.04171
425 K, 11725 kPa | 0.04223
425 K, 12199 kPa | 0.04389
425 K, 12731 kPa | 0.04579
425 K, 13246 kPa | 0.04767
425 K, 14152 kPa | 0.0509
425 K, 14767 kPa | 0.05309
425 K, 15462 kPa | 0.05563
425 K, 16201 kPa | 0.05822
425 K, 17025 kPa | 0.06094
425 K, 17904 kPa | 0.06397
425 K, 18751 kPa | 0.06707
425 K, 19579 kPa | 0.06993
425 K, 20442 kPa | 0.07271
